Measured values: patent US20250134938A1 (priority 2023, published 2025)
Where “and” joins values, the source holds several entries; their conditions need not be identical. Equal values may be shown once.

How the values were obtained:
[1] = DPPH radical scavenging assay; type: biochemical; settings: culture supernatant; relative to 2 mM ascorbic acid
Protocol: Louis, MO, USA) radical scavenging assay. […] 0.1 mM DPPH diluted in methanol was used in the experiment. […] The reaction mixture was centrifuged at 13,000 rpm for 1 minute. 200 μL of the supernatant was dispensed into a 96-well plate, and absorbance was measured at 517 nm using a microplate reader (Epoch microplate reader, Biotek Instruments, Inc., Winooski, VT, USA). DPPH radical scavenging activity was calculated using the following equation and expressed as a relative value to the DPPH radical scavenging activity of the positive control group, 2 mM ascorbic acid. DPPH Radical Scavenging Activity (%)=(1-(Absorbance of Sample/Absorbance of Control Group))×100

RAW 264.7 cells = assay: NO production by RAW 264.7 macrophages (Griess reagent); type: cell-based, mouse; settings: MOI 100, 24 hours, LPS 1 μg/mL as 100%
Protocol: RAW 264.7 cells (KCLB40071), which are mouse macrophages, were purchased from the Korean Cell Line Bank. They were inoculated to DMEM (high-glucose Dulbecco's modified Eagle's medium; GIBCO, Grand Island, NY, USA) containing 10% (v/v) fetal bovine serum (FBS, GIBCO) and 1% (v/v) penicillin-streptomycin (P/S, GIBCO), cultured at 37° C. in a 5% CO2 incubator (Thermo Fisher Scientific, Waltham, MA, USA), and then detached using a cell scraper (SPL, Pocheon, Korea).
Cell precipitates were harvested by centrifugation at 10,000 rpm for 5 minutes at 4° C. for 5 times. Afterward, they were washed three times with DPBS (Dulbecco's phosphate buffered saline; Welgene, Gyeongsan, Korea). […]
NO production by RAW 264.7 macrophages was measured using a Griess reagent. […] 100 µL of the culture was added to a 96-well plate and, after adding 100 μL of a Griess reagent A and a Griess reagent B of equal amounts, reaction was conducted for 15 minutes in the dark, and absorbance was measured at 540 nm with a microplate reader. A standard curve for NO production versus absorbance was constructed using a sample of 250 µM NaNO2 diluted 2-fold with DMEM to […], and NO concentration was calculated from the measured absorbance value.

[2] = Acid resistance in artificial gastric fluid; type: physicochemical; settings: pH 2.5, 2 h
Protocol: Artificial gastric fluid was prepared by adjusting the pH of 100 mM glycine-HCl buffer to 2.5. After inoculating Lactobacillus seed culture incubated at 37° C. for 20 hours to 1% (v/v) in 4 mL of MRS broth, the culture was incubated at 37° C. for 16 hours. The culture was centrifuged at 13000 rpm for 1 minute and the obtained cell precipitate was washed twice with 0.88% (w/v) NaCl (sterile physiological saline). The washed pellet was resuspended in 4 mL of the artificial gastric fluid and incubated at 37° C. After 2 hours of incubation, 1 mL of the sample was taken and centrifuged at 13000 rpm for 1 minute to obtain a cell pellet, which was washed three times with sterile physiological saline and resuspended in 1 mL of sterile physiological saline. After decimally diluting with 9 mL saline, followed by smearing on LAB Petrifilm, the sample was incubated at 37° C. for 1-2 days and the live bacteria were counted (Table 12). Acid resistance was calculated using the following equation. The sample at 0 hour of incubation was used as a control group. [formula]

[3] = Bile resistance in artificial bile; type: physicochemical; settings: 0.3% oxgall, 37° C., 24 hours
Protocol: Artificial bile was prepared by adding 3% of a 10% Bacto oxgall (Becton, Dickinson and Company) solution filtered through a 0.22-μm membrane to sterilized MRS broth to give a final oxgall concentration of 0.3%. […] 1 mL of the sample was taken, diluted decimally with 9 mL of saline, smeared on LAB Petrifilm, and incubated at 37° C. for 1-2 days to determine the number of live bacteria (Table 13). Bile resistance was calculated using the following equation. A sample incubated in MRS broth without addition of oxgall was used as a control group.

[4] = Pancreatic juice resistance in artificial pancreatic juice; type: physicochemical; settings: 0.5% pancreatin, listed as LGG
Protocol: Artificial pancreatic juice was prepared by adding 5% of a 10% pancreatin solution (0.85% NaCl, pH 8.0) filtered through a 0.22-μm membrane to sterilized MRS broth to a final pancreatin concentration of 0.5%. A Lactobacillus seed culture obtained by incubating at 37° C. for 20 hours after inoculation to MRS broth was added to 5 mL of the artificial pancreatic juice to 1% (v/v) and incubated at 37° C. […] Pancreatic juice resistance was calculated using the following equation. A sample at 0 hour of incubation was used as a control group. [formula]

Caco-2 cells = assay: Ability of intestinal adherence; type: cell-based, human; settings: MOI 200, 2 hours, listed as LGG
Protocol: Caco-2 cells (human colorectal adenocarcinoma cells, HTB-37™), which are enterocyte-like cells, purchased from the ATCC were cultured in DMEM medium supplemented with 10% (v/v) FBS (Cornig) and 1% (v/v) P/S at 37° C. under 5% CO2 in an incubator (Thermo Fisher Scientific, Waltham, MA, USA). 0.25% trypsin-EDTA (GIBCO) was used to detach the cells from a culture flask.
500 μL of the Caco-2 cells were seeded in a 24-well plate at a density of 5×10^5 cells/well and cultured for 3 days at 37° C. and 5% CO2. The 24-well plate in which the Caco-2 cells were cultured was washed twice with 500 μL of DMEM medium supplemented with 10% FBS. After treating with Lactobacilli at a concentration of MOI 200, the cells were incubated at 37° C. and 5% CO2 for 2 hours. After the incubation, each well was washed four times with 500 μL of DPBS to remove the unattached strain. 200 μL of 0.25% trypsin-EDTA was dispensed into each well and incubated for 5 minutes at 37° C. and 5% CO2. The detached Caco-2 cells and strain were collected in a 1.5-mL tube together with […] of DPBS and centrifuged at 13,000 rpm for 1 minute to harvest a cell pellet, which was washed twice with 1 mL of DPBS. […] After decimal dilution, followed by smearing on Petrifilm and incubation at 37° C. for 24 hours, the number of live bacteria was determined. The ability of intestinal adhesion was calculated by the following equation.

[5] = Number of live bacteria and pH of coconut fermented milk; settings: coconut milk fermented at 37° C. for 16 hours; listed as LGG
Protocol: Then, cells were harvested by centrifuging the Lactobacillus culture (13,000 rpm, 1 minute, 4° C.). The cell precipitate was washed 3 times with 0.85% (w/v) NaCl (sterile physiological saline) and then suspended in 1 mL of sterile physiological saline (The concentration of the suspension was 1×10^8 CFU/mL). (2) 1% (v/v) of the suspended strain was inoculated to 3 mL of coconut milk with a solid content of 8 wt %, and coconut fermented milk was prepared by fermenting at 37° C. for 16 hours. After measuring the pH of the coconut fermented milk prepared in Example 11-1, it was decimally diluted with sterile physiological saline and the number of live bacteria was counted on a […] lactic acid bacteria count plate (3M Company, St. Paul, MN, USA) after culturing for 1 to 2 days.

## Lactobacillus rhamnosus GG
[1]
  DPPH radical scavenging activity (%): 97.2%
RAW 264.7 cells
  NO production (% of positive control group): 18.5 ± 3.2%
RAW 264.7 cells; listed as LGG
  NO production (% of positive control group): 18.47%
[2]
  Acid resistance (%) Average: 83.3%
[2]; listed as LGG
  Acid resistance (%) Average: 83.3 ± 2.3%
[2]; single replicate, listed as LGG
  Acid resistance (%): 81.2% and 85.8% and 83.0%
[3]
  Bile resistance (%): 63.6 ± 9.3%
[4]; 0 h (control)
  live bacteria 0 h (CFU/mL): 1.30 × 10^9 CFU/mL and 1.73 × 10^9 CFU/mL and 1.12 × 10^9 CFU/mL
[4]; 37° C., 2 h
  live bacteria 2 h (CFU/mL): 3.14 × 10^9 CFU/mL and 3.87 × 10^9 CFU/mL and 2.74 × 10^9 CFU/mL
[4]; average
  Pancreatic juice resistance (%) Average: 104.1% and 104.1 ± 0.3%
[4]; single replicate
  Pancreatic juice resistance (%): 104.2% and 103.8% and 104.3%
Caco-2 cells
  Ability of intestinal adherence (%): 75.5% and 75.5 ± 9.3%
[5]
  pH: 3.57 and 3.57 ± 0.06
